Measurements taken from patent US20100099132A1, “BACTERIAL GROWTH INDUCER” (priority 2007, published 2010).

Assays:
H. alvei = test: Effect of additions on synthesis of BuGro activity by H. alvei in M9 minimal media; assay type: cell-based, Hafnia alvei; conditions: added at inoculum stage to H. alvei M9 culture: 5% supernatant (approx. 50 units/ml) or 100 μM norepinephrine; listed as NE
Procedure: Therefore, H. alvei was inoculated at 2×10^6 CFU/ml into M9 minimal media supplemented with 0.4% (w/v) glucose only (ie no addition, N/A), or with 5% culture supernatant from a previous H. alvei M9 culture (approximately 50 units/ml) (HA), or with 100 μM norepinephrine (NE). The cultures were incubated at 37° C. in a rotatory shaking incubator for 18 hrs (final cell density: 2.17, 2.32 and 2.39×10^8 CFU/ml). Bacteria were removed by centrifugation at 10,000 g for 15 minutes, and the resulting culture supernatant was sterilised by passage through a 0.2 micron stericup filter. The sterile supernatant was assayed at various volumes using test strain E. coli E2348/69 inoculated at 10^2 CFU/ml into serum-SAPI media and incubated statically for 17 hrs at 37° C. in a humidified CO2 incubator. Growth levels were measured using Luria agar and pour plate analysis.

E. coli = conditions: serum-based media; Table 2, prior art WO 98/53047; cited from earlier work
[1] = Stability (heat, lyophilisation, storage, enzymes, pH); assay type: physicochemical
Procedure: BuGro™ and the individual activity Peaks 1, 2 and 3 are each stable to 60 minutes boiling when in a heat-stable buffer such as 50 mM Tris-HCl, pH 7.5 or phosphate buffered saline (PBS). All are fully stable to lyophilisation, and if maintained in a lyophilised form, crude BuGro™ is 90-95% stable to storage at 4° C. for at least 2 years.

stability once synthesised in minimal media such as M9 [1]	Structure (SMILES)	effect on synthesis of BuGro activity (H. alvei)	effect on Bacxell synthesis (E. coli)
	NC[C@H](O)c1ccc(O)c(O)c1 [norepinephrine]	not induced	4. Induced by norepinephrine, but also
highly unstable	O=C(N[C@H]1COC(=O)[C@@H](NC(=O)c2cccc(O)c2O)COC(=O)[C@@H](NC(=O)c2cccc(O)c2O)COC1=O)c1cccc(O)c1O [enterobactin]		
